The target in test [1] is T1, Cyclooxygenase COX-2 (Homo sapiens, UniProt P35354).
T1 construct: host or cells: insect Sf21
T1 sequence (P35354 18-604): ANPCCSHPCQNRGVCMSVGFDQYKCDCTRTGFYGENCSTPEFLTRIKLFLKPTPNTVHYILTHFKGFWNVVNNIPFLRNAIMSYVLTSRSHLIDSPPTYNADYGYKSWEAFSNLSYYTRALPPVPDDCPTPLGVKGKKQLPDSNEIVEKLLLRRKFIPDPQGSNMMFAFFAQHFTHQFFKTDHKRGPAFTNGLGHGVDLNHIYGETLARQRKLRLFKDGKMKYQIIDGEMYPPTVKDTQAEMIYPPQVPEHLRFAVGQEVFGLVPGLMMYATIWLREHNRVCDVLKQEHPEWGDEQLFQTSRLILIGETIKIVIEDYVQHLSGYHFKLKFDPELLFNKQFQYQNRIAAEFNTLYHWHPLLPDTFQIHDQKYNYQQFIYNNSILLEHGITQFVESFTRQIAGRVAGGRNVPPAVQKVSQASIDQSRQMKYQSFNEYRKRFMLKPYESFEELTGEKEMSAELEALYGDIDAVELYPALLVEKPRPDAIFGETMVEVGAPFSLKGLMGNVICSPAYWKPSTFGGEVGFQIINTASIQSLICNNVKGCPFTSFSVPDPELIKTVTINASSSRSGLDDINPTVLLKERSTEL
Kind of test: 118010 Cyclooxygenase COX-2 biochemical assay (EIA quantitation of PGE2). On the procedure:
(§1) Methods employed in this study have been adapted from the scientific literature to maximize reliability and reproducibility. […] Assays were performed under conditions described in the accompanying “Methods” section of this report. The literature references for each assay are in the “Literature References” section. If either of these sections were not originally requested with the accompanying report, please contact us at the number below for a printout of either of these report sections.
(§2) Biochemical assay results are presented as the percent inhibition of specific binding or activity throughout the report.

Test [2] relates to collagen-induced arthritis (CIA). Kind of test: Development of collagen-induced arthritis (treatment from day of immunisation). To be noted: 200 mg/kg/day from the day of immunisation. The test is classed as in vivo, DBA/1 mice. On the procedure:
Type II collagen was purified from bovine cartilage, as described [Williams 2004, Methods Mol. Med. 98:207-216] and solubilized by stirring overnight at 4° C. in acetic acid (0.1M) or Tris buffer (0.05 M Tris, containing 0.2 M NaCl, pH 7.4). 3,4-DAA was synthesised by Angiogen Pharmaceuticals Pty. Ltd. For in vivo studies 3,4-DAA was dissolved at a maximum concentration of 10 mg/ml in 1% sodium bicarbonate by heating for 1 h at 70° C. Upon cooling, an emulsion was formed. For in vitro studies 3,4-DAA was dissolved in dimethyl sulphoxide (DMSO). 3-Hydroxy-anthranilic acid (3-HAA) was purchased from Sigma (Poole, UK) and dissolved in PBS.
Male DBA/1 mice (8-12 weeks old) were immunized intradermally at the base of the tail with bovine type II collagen (200 μg) emulsified in complete Freund's adjuvant (CFA; Difco, West Molesley, UK). Arthritis was monitored clinically using the following scoring system: 0=normal, 1=slight swelling and/or erythema, and 2=pronounced oedematous swelling. Each limb was graded, giving a maximum score of 8 per mouse. In addition, paw-swelling was measured using callipers.
In order to assess its anti-arthritic potential, 3,4-DAA was injected into DBA/1 mice (200 mg/kg/day) from the day of immunisation with type II collagen in CFA. […]

Test [3] deals with Cyclooxygenase COX-1 (Homo sapiens, UniProt P23219). Kind of test: biochemical. The method, then:
as §1, §2

In test [4] the test system is acetic acid-induced writhing. Kind of test: Analgesia, acetic acid writhing in mice (Example 3). The test is classed as in vivo, mouse. To be noted: for No. of Writhing Average: group of 5 mice; for % Inhibition: relative to vehicle control; for No. of Writhing Individual: single mice. On the procedure:
3-Hydroxyanthranilic acid was evaluated for possible analgesic activity in mouse acetic acid-induced pain response assay.
3-Hydroxyanthranilic acid was purchased from Sigma (USA) by MDS Pharma Services-Taiwan Ltd. and administered orally at the doses of 400, 200 and 100 mg/kg for analgesia, acetic acid-induced writhing assay. 2% Tween 80 was used as the vehicle.
Male CD-1 (Crl.) mice provided by BioLasco Taiwan (under Charles River Laboratories Technology Licensee) were used. Space allocation for 10 animals was 29×18×13 cm. All animals were maintained in a controlled temperature (23° C.-24° C.) and humidity (60%-70%) environment with 12 hours light dark cycles for at least one week in MDS Pharma Services—Taiwan Laboratory prior to use. Free access to standard lab chow for Mice (LabDiet Rodent Diet, PMI Nutrition International, USA) and tap water was granted. All aspects of this work including housing, experimentation and disposal of animals were performed in general accordance with the Guide for the Care and Use of Laboratory Animals (National Academy Press, Washington, D.C., 1996).
Test substance was administered orally to groups of 5 CD-1 (Crl.) derived male or female mice weighing 24±2 g, 2 hour before injection of acetic acid (0.5%, 20 ml/kg IP). Reduction in the number of writhes by 50 percent or more (≧50%) per group of animals observed during the 5 to 10 minute period after acetic acid administration, relative to a vehicle-treated control group, indicates possible analgesic activity.
Test substance was administered orally to groups of 5 mice 1 hour before injection of 0.5% Acetic Acid (20 ml/kg IP). The number of writhing per group of animals observed during the 5 to 10 minute period after acetic acid challenge was observed. Reduction in the number of writhing by 50 percent or more (≧50%) relative to the vehicle-treated control group indicates possible analgesic activity.
(Writhing tests count abdominal constrictions after an irritant is injected.)

By inhibition is commonly meant the drop in the measured response relative to a control, in per cent. A word on the % Inhibition: it is the change of the read-out against control, counted positive when it falls.

Each structure is given as a SMILES string. “And” between values parts separate entries of the source, which are not always exact repeats. Equal values may be shown once.

Sequence of Cyclooxygenase COX-1 (P23219 24-599): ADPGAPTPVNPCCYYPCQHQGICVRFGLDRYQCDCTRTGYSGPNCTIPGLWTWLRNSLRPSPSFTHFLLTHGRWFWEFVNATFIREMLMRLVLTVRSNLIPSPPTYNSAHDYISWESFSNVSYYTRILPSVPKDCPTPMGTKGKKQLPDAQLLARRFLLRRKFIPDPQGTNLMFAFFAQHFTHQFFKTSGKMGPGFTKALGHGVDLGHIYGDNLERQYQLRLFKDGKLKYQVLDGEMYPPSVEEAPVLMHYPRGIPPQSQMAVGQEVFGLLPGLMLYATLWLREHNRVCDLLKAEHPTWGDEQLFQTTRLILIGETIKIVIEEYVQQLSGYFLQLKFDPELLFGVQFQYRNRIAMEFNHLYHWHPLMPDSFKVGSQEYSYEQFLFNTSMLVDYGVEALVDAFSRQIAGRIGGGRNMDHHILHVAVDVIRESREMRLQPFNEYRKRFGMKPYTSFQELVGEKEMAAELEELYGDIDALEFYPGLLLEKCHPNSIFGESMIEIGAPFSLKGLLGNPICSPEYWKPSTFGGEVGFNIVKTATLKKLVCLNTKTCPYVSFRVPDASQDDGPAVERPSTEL

Take `COc1ccc(/C=C/C(=O)Nc2ccccc2C(=O)O)cc1OC` [Tranilast, 2-[[3-(3,4-dimethoxyphenyl)-1-oxo-2-propenyl]amino]benzoic acid]: the “effect on the activity of the COX-2 enzyme” value in test [1] is “no effect”. Further, the inhibition at 10 µM in test [1] (10 μM, n=2) was 0%. Besides, the “clinical score of arthritis by day 28” value in test [2] is 1. Also, in test [2] (7 mice), the “mice that had developed arthritis by day 28” value was 14%. Moreover, in test [3], the “effect on the activity of the COX-1 enzyme” value is recorded as “no effect” and the inhibition at 10 µM is -2%.
As for `Nc1c(O)cccc1C(=O)O` [3-Hydroxyanthranilic acid], the “No. of Writhing Average” value in test [4] (100 mg/kg PO) is recorded as 13; in test [4] (200 mg/kg PO), 12; in test [4] (400 mg/kg PO) it was 8. The “% Inhibition” value in test [4] (100 mg/kg PO) is on record as 0%; in test [4] (200 mg/kg PO) it was 8%; in test [4] (400 mg/kg PO), 38%. Moreover, the “No. of Writhing Individual” value in test [4] (100 mg/kg PO) was 18 and 12 (2×) and 13 and 10; in test [4] (200 mg/kg PO) it was 16 and 9 and 12 and 10 and 15; in test [4] (400 mg/kg PO before acetic acid (0.5%, 20 ml/kg IP), 5 to 10 minute period), 5 (2×) and 6 and 14 and 12. The “significant analgesic activity (≧50% inhibition of writhing relative to vehicle)” value in test [4] (400, 200 and 100 mg/kg PO) was “did not demonstrate any significant analgesic activity”.

The values are drawn from patent publication US20090197957A1, “Methods and compositions for the treatment of pain” (Nuon Therapeutics, Inc., priority 2005, published 2009).
